From patent US10253002B2, “Compounds and methods of treating infections” (Neoculi Pty Ltd., priority 2013, dated 2019)
Values after ≈ are worked out from the molar mass of the structure shown. Values joined by “and” are separate entries in the source; they are usually repeats but may differ in a detail not shown here. Identical values can stand only once. Like-named read-outs stand apart in the source and are kept apart here.

How the values were obtained:
VRE = assay: Broth microdilution MIC, Example 7 (NCL812 and analogues); assay type: cell-based, Enterococcus spp.; details: for MIC: Enterococcus, VRE
Summary of the method: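 Values are MICs in μg/ml from broth microdilution per CLSI, with growth scored against a drug-free well.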

[1] = Visual analysis of solubility in diluents and media, Example 5; assay type: physicochemical

Work on `N=C(N/N=C/c1ccc(Cl)cc1)N/N=C/c1ccc(Cl)cc1` [NCL812, 1,3-bis[(E)-(4-chlorophenyl)methyleneamino]guanidine] yielded an MIC (VRE; VRE 004 [H16c], Phase II, 1st, read-out: MIC) of 2 µg/mL (≈ 5.98 µM), an MIC (VRE; VRE 004 [H16c], Phase II, 2nd, read-out: MIC) of 2 µg/mL (≈ 5.98 µM) and an MIC (VRE; VRE 005 [H17c], Phase I, 1st, read-out: MIC) of 2 µg/mL (≈ 5.98 µM). For the same molecule, the MIC (VRE; VRE 005 [H17c], Phase I, 2nd, read-out: MIC) was 2 µg/mL (≈ 5.98 µM), the MIC (VRE; VRE 005 [H17c], Phase II, 1st, read-out: MIC) was 2 µg/mL (≈ 5.98 µM) and the MIC (VRE; VRE 005 [H17c], Phase II, 2nd, read-out: MIC) was 2 µg/mL (≈ 5.98 µM). For the same molecule, the MIC (VRE; VRE 006 [H19t], Phase I, 1st, read-out: MIC) was 2 µg/mL (≈ 5.98 µM), the MIC (VRE; VRE 006 [H19t], Phase I, 2nd, read-out: MIC) was 2 µg/mL (≈ 5.98 µM) and the MIC (VRE; VRE 006 [H19t], Phase II, 1st, read-out: MIC) was 2 µg/mL (≈ 5.98 µM). The MIC (VRE; VRE 006 [H19t], Phase II, 2nd, read-out: MIC) was 2 µg/mL (≈ 5.98 µM), the MIC (VRE; VRE 007 [H23c], Phase I, 1st, read-out: MIC) was 4 µg/mL (≈ 12 µM) and the MIC (VRE; VRE 007 [H23c], Phase I, 2nd, read-out: MIC) was 4 µg/mL (≈ 12 µM). It also gave an MIC (VRE; VRE 007 [H23c], Phase II, 1st, read-out: MIC) of 2 µg/mL (≈ 5.98 µM), an MIC (VRE; VRE 007 [H23c], Phase II, 2nd, read-out: MIC) of 2 µg/mL (≈ 5.98 µM) and an MIC (VRE; VRE 008 [H16c(dc)], Phase I, 1st, read-out: MIC) of 4 µg/mL (≈ 12 µM). The MIC (VRE; VRE 008 [H16c(dc)], Phase I, 2nd, read-out: MIC) was 4 µg/mL (≈ 12 µM), the MIC (VRE; VRE 008 [H16c(dc)], Phase II, 1st, read-out: MIC) was 2 µg/mL (≈ 5.98 µM) and the MIC (VRE; VRE 008 [H16c(dc)], Phase II, 2nd, read-out: MIC) was 2 µg/mL (≈ 5.98 µM). It also gave an MIC (VRE; VRE 009 [H25c], Phase I, 1st, read-out: MIC) of 4 µg/mL (≈ 12 µM), an MIC (VRE; VRE 009 [H25c], Phase I, 2nd, read-out: MIC) of 4 µg/mL (≈ 12 µM) and an MIC (VRE; VRE 009 [H25c], Phase II, 1st, read-out: MIC) of 2 µg/mL (≈ 5.98 µM). The MIC (VRE; VRE 009 [H25c], Phase II, 2nd, read-out: MIC) was 2 µg/mL (≈ 5.98 µM), the MIC (VRE; VRE 010 [H26c(w)], Phase I, 1st, read-out: MIC) was 4 µg/mL (≈ 12 µM) and the MIC (VRE; VRE 010 [H26c(w)], Phase I, 2nd, read-out: MIC) was 4 µg/mL (≈ 12 µM). For the same molecule, the MIC (VRE; VRE 010 [H26c(w)], Phase II, 1st, read-out: MIC) was 2 µg/mL (≈ 5.98 µM), the MIC (VRE; VRE 010 [H26c(w)], Phase II, 2nd, read-out: MIC) was 2 µg/mL (≈ 5.98 µM) and the MIC (VRE; VRE 011 [H26c(dc)], Phase I, 1st, read-out: MIC) was 2 µg/mL (≈ 5.98 µM). The MIC (VRE; VRE 011 [H26c(dc)], Phase I, 2nd, read-out: MIC) was 4 µg/mL (≈ 12 µM), the MIC (VRE; VRE 011 [H26c(dc)], Phase II, 1st, read-out: MIC) was 2 µg/mL (≈ 5.98 µM) and the MIC (VRE; VRE 011 [H26c(dc)], Phase II, 2nd, read-out: MIC) was 2 µg/mL (≈ 5.98 µM). For the same molecule, the MIC (VRE; VRE 012 [H35t], Phase I, 1st, read-out: MIC) was 2 µg/mL (≈ 5.98 µM), the MIC (VRE; VRE 012 [H35t], Phase I, 2nd, read-out: MIC) was 2 µg/mL (≈ 5.98 µM) and the MIC (VRE; VRE 012 [H35t], Phase II, 1st, read-out: MIC) was 2 µg/mL (≈ 5.98 µM). The MIC (VRE; VRE 012 [H35t], Phase II, 2nd, read-out: MIC) was 2 µg/mL (≈ 5.98 µM), the MIC (VRE; VRE 013 [H37c(w)], Phase I, 1st, read-out: MIC) was 2 µg/mL (≈ 5.98 µM) and the MIC (VRE; VRE 013 [H37c(w)], Phase I, 2nd, read-out: MIC) was 2 µg/mL (≈ 5.98 µM). It also gave an MIC (VRE; VRE 013 [H37c(w)], Phase II, 1st, read-out: MIC) of 2 µg/mL (≈ 5.98 µM), an MIC (VRE; VRE 013 [H37c(w)], Phase II, 2nd, read-out: MIC) of 2 µg/mL (≈ 5.98 µM) and an MIC (VRE; VRE 014 [H37c(g)], Phase I, 1st, read-out: MIC) of 4 µg/mL (≈ 12 µM). It also gave an MIC (VRE; VRE 014 [H37c(g)], Phase I, 2nd, read-out: MIC) of 4 µg/mL (≈ 12 µM), an MIC (VRE; VRE 014 [H37c(g)], Phase II, 1st, read-out: MIC) of 2 µg/mL (≈ 5.98 µM) and an MIC (VRE; VRE 014 [H37c(g)], Phase II, 2nd, read-out: MIC) of 2 µg/mL (≈ 5.98 µM). For the same molecule, the MIC (VRE; bioassay ranking, read-out: VRE) was 1.75 µg/mL (≈ 5.24 µM), the “MIC (μg/ml) at 24 hours, VRE 1” value (VRE; isolate VRE 1, 24 hours, 1st and 2nd replicate rows) was 2 µg/mL (≈ 5.98 µM) and the “MIC (μg/ml) at 24 hours, VRE 2” value (VRE; isolate VRE 2, 24 hours, 1st and 2nd replicate rows) was 2 µg/mL and 1 µg/mL. For the same molecule, the “Visual analysis of solubility” value ([1]; Diluent CAMHB) was “Turbid”, the “Visual analysis of solubility” value ([1]; Diluent DMSO) was “Transparent” and the “Visual analysis of solubility” value ([1]; Diluent PBS) was “Precipitate”. For the same molecule, the “Visual analysis of solubility” value ([1]; Media 4% LHB:CAMHB) was “Turbid” and the “Visual analysis of solubility” value ([1]; Media 10% horse serum-supplemented broth) was “Precipitate”.
